{"source": "patent US6414222B1", "about": "“Gene combinations for herbicide tolerance in corn” (Regents of the University of Minnesota, priority 1993, dated 2002)", "tested_on": "progeny of 2167-9/2160-154 control plants", "test": "Sethoxydim treatment of progeny seedlings, greenhouse", "type": "in vivo, maize", "settings": "seedlings treated at 3-4 leaf stage, rated two weeks after treatment", "procedure": "Seeds obtained by the crossing procedure described above were viable and germinated normally. Seeds from thirty S-2 selfed plants and fifteen 2167-9/2160-154 control plants were planted in 25×50 cm trays of soil (28 seeds from each plant in one tray) and grown in the greenhouse. Seedlings at the 3-4 leaf stage were treated with 0.1, 0.44, and 1.1 kg/ha sethoxydim and evaluated for visual herbicide damage and shoot height. Based on visual rating of herbicide damage two weeks after treatment, selfed progeny of S-2 plants segregated approximately 1:2:1 for healthy, uninjured plants: to plants showing partial injury: to dead plants, respectively, at 0.44 and 1.1 kg/ha sethoxydim treatments. All control progeny of 2167-9/2160-154 control plants were killed by 0.1 kg/ha and greater levels of sethoxydim. […] Similar tests were conducted on progeny of S-2 plants crossed to the other inbreds. In all cases, these test cross progeny treated with 0.44 kg/ha sethoxydim segregated 1:1 for growing shoots versus dead shoots whether S-2 plants were used as male or female parents. […] In all cases, control plants crossed to the other inbreds were killed and therefore sethoxydim-sensitive.", "data": [{"smiles": "CCCC(=NOCC)C1=C(O)CC(CC(C)SCC)CC1=O", "note": "(stereo not shown) [Sethoxydim, 2-[1-(ethoxyimino)-butyl]-5-[2-(ethylthio)propyl]-3-hydroxy-2-cyclohexen-1-one]", "values": [{"measurement": "Rate that killed all control progeny", "result": "≥ 0.1", "unit": "kg/ha"}]}]}
